Data reported in publication PMC9914855, “UHPLC-MS Phenolic Fingerprinting, Aorta Endothelium Relaxation Effect, Antioxidant, and Enzyme Inhibition Activities of Azara dentata Ruiz & Pav Berries” (Foods, 2023).

Tests used:
tyrosinase = tyrosinase (Agaricus bisporus, UniProt C7FF04); parameters: method as in PMID 36552522; conditions: cited from earlier work
[1] = target: butyrylcholinesterase (BChE); parameters: method as in PMID 36552522; conditions: cited from earlier work
[2] = target: acetylcholinesterase (AChE); parameters: method as in PMID 36552522; conditions: cited from earlier work
human erythrocytes = assay: Lipid peroxidation in human erythrocytes; type: cell-based; conditions: at 100 µg/mL
Method: The lipid peroxidation in human erythrocytes (LP) assay was performed as described in a previous study with some modifications. Human blood cells (red) were used. After washing, the cells were suspended in phosphate-buffered saline (hemoglobin density of 1 mM). The final cell suspension with different concentrations of the test compounds was incubated and dissolved in DMSO and PBS for 10 min at 37 °C. After incubation, the cells were added to tert-butylhydroperoxide (1 mM) for 15 min at 37 °C. After this, the lipid peroxidation was obtained via the TBARs’ formation. The evaluation was performed in quadruplicate, and the results are shown as the inhibition percentage (IP) of lipid peroxidation in human erythrocytes (IPLP) contrasted to the control of catechin at 100 µg/mL and reported as the average ± SD. Healthy volunteer donors gave their informed consent for inclusion before participating in the study. The protocol assay was conducted in accordance with the Declaration of Helsinki and is included in the approved project by CICIT-CA-UNSJ-Argentina (Project code 80020190100277SJ, N 0591-20-R-UNSJ), referred to as an ethical and environmental safeguard and to preserve the hygiene and safety conditions in the activities to be carried out in laboratories.

BChE = target: T1, BChE (Homo sapiens, UniProt P06276); conditions: cited from earlier work
T1 construct: purchased Merck, Darmstadt, Germany

amylase = conditions: cited from earlier work
AChE = target: T2, AChE (Homo sapiens, UniProt P22303); conditions: cited from earlier work
T2 construct: purchased Merck, Darmstadt, Germany

lipase = conditions: cited from earlier work
[3] = parameters: method as in PMID 36552522; conditions: read-out: GI50 (cytotoxic); cited from earlier work

T2 sequence (P22303 32-614): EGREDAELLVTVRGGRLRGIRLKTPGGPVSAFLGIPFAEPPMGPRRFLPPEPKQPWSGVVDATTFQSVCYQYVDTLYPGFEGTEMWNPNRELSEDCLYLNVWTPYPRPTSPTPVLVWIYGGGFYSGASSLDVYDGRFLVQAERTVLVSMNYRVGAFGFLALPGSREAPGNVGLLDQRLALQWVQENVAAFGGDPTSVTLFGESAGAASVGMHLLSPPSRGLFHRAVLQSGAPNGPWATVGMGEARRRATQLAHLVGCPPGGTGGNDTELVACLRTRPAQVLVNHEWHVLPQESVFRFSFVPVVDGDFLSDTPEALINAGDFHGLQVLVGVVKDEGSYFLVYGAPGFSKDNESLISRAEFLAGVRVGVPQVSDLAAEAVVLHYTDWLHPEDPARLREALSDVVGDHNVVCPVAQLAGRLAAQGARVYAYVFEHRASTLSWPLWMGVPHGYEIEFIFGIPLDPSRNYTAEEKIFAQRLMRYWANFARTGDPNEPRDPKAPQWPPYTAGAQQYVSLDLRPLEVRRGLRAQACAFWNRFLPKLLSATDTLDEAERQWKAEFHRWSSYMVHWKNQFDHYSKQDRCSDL
Chain of tyrosinase (C7FF04 1-392): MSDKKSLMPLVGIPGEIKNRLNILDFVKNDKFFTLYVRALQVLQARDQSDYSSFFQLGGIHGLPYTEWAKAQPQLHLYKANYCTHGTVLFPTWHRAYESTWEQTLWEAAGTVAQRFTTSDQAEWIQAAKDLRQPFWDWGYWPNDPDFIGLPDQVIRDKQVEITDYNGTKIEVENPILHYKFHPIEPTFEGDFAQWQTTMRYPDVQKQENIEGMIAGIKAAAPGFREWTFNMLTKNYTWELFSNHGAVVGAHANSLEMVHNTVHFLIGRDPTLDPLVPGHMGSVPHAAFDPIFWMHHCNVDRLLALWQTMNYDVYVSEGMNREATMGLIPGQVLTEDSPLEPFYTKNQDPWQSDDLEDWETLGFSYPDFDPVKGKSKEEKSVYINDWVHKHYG
T1 sequence (P06276 29-602, species assumed): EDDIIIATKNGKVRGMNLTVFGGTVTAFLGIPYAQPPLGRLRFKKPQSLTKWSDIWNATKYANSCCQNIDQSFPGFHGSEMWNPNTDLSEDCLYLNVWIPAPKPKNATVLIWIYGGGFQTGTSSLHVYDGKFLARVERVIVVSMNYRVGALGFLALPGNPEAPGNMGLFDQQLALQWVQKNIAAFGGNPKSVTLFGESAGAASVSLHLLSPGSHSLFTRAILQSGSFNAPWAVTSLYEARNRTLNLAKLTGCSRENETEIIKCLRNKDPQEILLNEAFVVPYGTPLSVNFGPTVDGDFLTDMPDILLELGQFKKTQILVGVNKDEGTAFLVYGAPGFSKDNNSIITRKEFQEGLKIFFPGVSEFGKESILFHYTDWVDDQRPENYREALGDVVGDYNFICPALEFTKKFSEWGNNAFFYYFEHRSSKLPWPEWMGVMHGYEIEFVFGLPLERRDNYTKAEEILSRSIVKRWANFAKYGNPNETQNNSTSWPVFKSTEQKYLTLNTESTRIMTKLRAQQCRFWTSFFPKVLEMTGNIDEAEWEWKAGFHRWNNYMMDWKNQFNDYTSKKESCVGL

For “2-nor-1,2-secolycoserone [2-nor-1,2-secolycoserone coumarin]”, the “tyrosinase IC50” value (tyrosinase) is listed as 103.43 ± 16.86 µg/mL, the “BChE IC50” value [1] is listed as 11.23 ± 0.02 µg/mL and the AChE inhibition [2] is listed as 1.21 ± 0.03 µg/mL.
In the case of `O.Oc1cc(O)c2c(c1)O[C@H](c1ccc(O)c(O)c1)[C@@H](O)C2` [catechin], the “IPLP (inhibition percentage of lipid peroxidation in human erythrocytes)” value (human erythrocytes) is reported as 70%.
In the case of `O=C(/C=C/c1ccc(O)c(O)c1)O[C@@H]1C[C@](O)(C(=O)O)C[C@@H](O)[C@H]1O` [chlorogenic acid, Chlorogenic acid], the IC50 (BChE) is listed as 17.8 µM, the “amylase IC50” value (amylase) is listed as 498 ± 13 µg/mL and the IC50 (AChE) is listed as 22.6 µM. The “lipase IC50” value (lipase) was 647 µg/mL.
For `N.N.[Cl][Pt][Cl]` [cisplatin, reference compound], the GI50 [3] is listed as 4.9 ± 0.2 µM.
In the case of `CC1=C(CC/C(C)=C/CO)[C@]2(C)CCCC(C)(C)C2CC1` (stereo partly drawn) [ent-labda-8,13-E-diene-15-ol], the GI50 [3] is given as 4.5 ± 0.1 µM.
